Our source for the IC50 values is BindingDB's records for doi:10.1016/j.bmcl.2008.11.105 (Pfizer, 2009).

The target of the assay is T1, Protein kinase C zeta type (Homo sapiens, UniProt Q05513).
T1 sequence (Q05513 whole entry): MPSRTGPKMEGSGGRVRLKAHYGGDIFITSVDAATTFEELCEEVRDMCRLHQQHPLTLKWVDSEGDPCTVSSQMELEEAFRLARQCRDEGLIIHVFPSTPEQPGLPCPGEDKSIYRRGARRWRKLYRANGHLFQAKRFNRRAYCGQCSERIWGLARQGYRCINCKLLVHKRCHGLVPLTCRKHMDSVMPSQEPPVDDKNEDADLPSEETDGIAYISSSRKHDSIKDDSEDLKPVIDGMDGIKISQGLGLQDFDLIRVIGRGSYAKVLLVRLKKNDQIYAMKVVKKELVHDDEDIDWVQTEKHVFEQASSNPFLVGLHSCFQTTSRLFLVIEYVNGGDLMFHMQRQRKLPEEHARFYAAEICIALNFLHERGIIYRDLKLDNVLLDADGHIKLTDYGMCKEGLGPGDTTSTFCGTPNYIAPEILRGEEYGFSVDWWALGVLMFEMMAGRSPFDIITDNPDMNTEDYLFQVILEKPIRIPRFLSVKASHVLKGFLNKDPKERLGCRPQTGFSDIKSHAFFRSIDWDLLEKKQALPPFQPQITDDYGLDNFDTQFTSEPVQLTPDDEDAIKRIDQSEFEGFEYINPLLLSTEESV
Briefly: PKC Enzyme Assay. The conditions noted are these: pH 7.5; 23 °C. As for the experimental part: Protein kinase C (PKC), zeta activity was measured by following the phosphorylation of a biotinylated peptide substrate in the presence of ATP using AlphaScreen technology (Perkin Elmer, Waltham, MA). The AlphaScreen assay format relies on bringing a streptavidin coated donor bead and an IgG-protein A acceptor bead into proximity through the interaction between biotinylated phosphorylated peptide and a phospho-specific antibody to the peptide. Upon excitation of the donor bead at 680 nm, excited state singlet oxygen is produced and diffuses to acceptor beads in close proximity (200 nm), activating a cascade of fluorophores resulting in emission between 520-620 nm. Kinase activity is quantified through the evaluation of this emission signal. Compounds are evaluated as potential inhibitors of the PKC kinase activity by measuring their effects on the phosphorylation of the peptide substrate. IC50 value determinations were made for potential inhibitors by testing compounds at 12 concentrations in three-fold serial dilutions with each concentration tested in triplicate. Reactions were carried out for 60 minutes at room temperature. Reactions were then quenched by addition of stop solution. […] Plates were then read on a Fusion reader after an overnight equilibrium at room temperature.

Usually IC50 stands for the concentration that gives 50% inhibition. Read a low IC50 as greater potency. `CN1CCN(c2cccc3[nH]c(-c4n[nH]c5cc(-c6ccc7ncccc7c6)ccc45)nc23)CC1` [indazole-benzimidazole, 23] showed an IC50 of 6.84 µM.

Turning to `CN1CCN(c2cccc3[nH]c(-c4n[nH]c5cc(-c6ccc7ccoc7c6)ccc45)nc23)CC1` [indazole-benzimidazole, 25], the 50% inhibitory concentration (IC50) came to 3.02 µM.
